Source: US9244346B2, “Negative-type photosensitive resin composition, pattern forming method, cured film, insulating film, color filter, and display device” (TOKYO OHKA KOGYO CO., LTD., priority 2011, dated 2016)

Legend:
[1] = wavelength (λmax) at absorption spectrum peak and gram absorption coefficient at λmax; type: physicochemical; conditions: for λmax: wavelength at absorption spectrum peak
[2] = solubility to propylene glycol monomethyl ether acetate (PM) and cyclohexanone (AN); conditions: for Solubility to Solvent AN: cyclohexanone; for Solubility to Solvent PM: propylene glycol monomethyl ether acetate

SMILES | Gram Absorption Coefficient at λmax [1] | λmax [1] | Solubility to Solvent AN [2] | Solubility to Solvent PM [2]
COc1ccccc1/C=C/C(=O)N1CCCCC1 [Comparative Compound 2, reference compound] | 76 | 275 nm | <1 mass % | <1 mass %
CCO[Si](C)(CCCN)OCC [Comparative Compound 6, reference compound] | 143 | 212 nm | >50 mass % | >50 mass %
CCN(CC)C(=O)/C=C/c1ccc(OC)cc1 [Compound 1] | 90 | 309 nm | >50 mass % | >50 mass %
COc1ccc(/C=C/C(=O)Nc2ccccc2)cc1 [Compound 2] | 117 | 317 nm | >50 mass % | >50 mass %
COc1ccc(/C=C/C(=O)n2ccnc2)cc1 [Compound 3] | 81 | 293 nm | >50 mass % | >50 mass %
COc1ccc(/C=C/C(=O)N2CCOCC2)cc1 [Compound 4] | 79 | 310 nm |  | 
COc1ccc(/C=C/C(=O)n2ccnc2)c([N+](=O)[O-])c1 [Compound 5] | 121 | 332 nm |  | 
COc1ccc(/C=C/C(=O)n2ccnc2)cc1[N+](=O)[O-] [Compound 6] | 86 | 344 nm |  | 
COc1ccc(/C=C(\C)C(=O)n2ccnc2)c([N+](=O)[O-])c1 [Compound 7] | 137 | 339 nm | >50 mass % | >50 mass %
COc1ccc(/C=C(\C)C(=O)n2ccnc2)cc1[N+](=O)[O-] [Compound 8] | 98 | 351 nm |  | 
CCN(CC)C(=O)/C=C/c1ccc(OC)cc1[N+](=O)[O-] [Compound 9] | 102 | 342 nm | >50 mass % | >50 mass %
CCN(CC)C(=O)/C=C/c1ccc(OC)c([N+](=O)[O-])c1 [Compound 10] | 119 | 354 nm | >50 mass % | >50 mass %
CCN(CC)C(=O)/C(C)=C/c1ccc(OC)cc1[N+](=O)[O-] [Compound 11] | 107 | 349 nm | >50 mass % | >50 mass %
CCN(CC)C(=O)/C(C)=C/c1ccc(OC)c([N+](=O)[O-])c1 [Compound 12] | 127 | 361 nm | >50 mass % | >50 mass %
COc1ccc(/C=C/C(=O)N2CCCCC2)c([N+](=O)[O-])c1 [Compound 13] | 87 | 313 nm | >50 mass % | >50 mass %
COc1ccc(/C=C/C(=O)N2CCCCC2)cc1[N+](=O)[O-] [Compound 14] | 94 | 322 nm | >50 mass % | >50 mass %
COc1ccc(/C=C(\C)C(=O)N2CCCCC2)c([N+](=O)[O-])c1 [Compound 15] | 92 | 313 nm | >50 mass % | >50 mass %
COc1ccc(/C=C(\C)C(=O)N2CCCCC2)cc1[N+](=O)[O-] [Compound 16] | 105 | 323 nm | >50 mass % | >50 mass %
COc1ccc(C=CC(=O)N2CCCCC2)cc1 [Compound 17] | 74 | 281 nm | >50 mass % | >50 mass %
COc1ccc(C=C(C)C(=O)n2ccnc2)cc1 [Compound 18] | 84 | 301 nm |  | 
CCN(CC)C(=O)C(C)=Cc1ccc(OC)cc1 [Compound 19] | 86 | 318 nm | >50 mass % | >50 mass %
CCN(CC)C(=O)C=Cc1ccc(OC)cc1O [compound 7, reference compound] | 72 | 304 nm | >50 mass % | >50 mass %
COc1ccc(C=CC(=O)n2ccnc2)c(O)c1 [compound 9, reference compound] | 65 | 290 nm | >50 mass % | >50 mass %
